Data: ChEMBL document CHEMBL4265900, “Discovery of the bifunctional modulator of angiotensin II type 1 receptor (AT1R) and PPARγ derived from the AT1R antagonist, Fimasartan” (Bioorg Med Chem Lett, 2018)
Calls of active or inactive are those of the source. The rule behind the calls is not given here.

Legend:
[1] = molecular target: T1, Peroxisome proliferator-activated receptor gamma (Homo sapiens) (UniProt P37231); test: Agonist activity at PPARgamma (unknown origin) at 1 uM relative to telmisartan
T1 sequence (whole entry): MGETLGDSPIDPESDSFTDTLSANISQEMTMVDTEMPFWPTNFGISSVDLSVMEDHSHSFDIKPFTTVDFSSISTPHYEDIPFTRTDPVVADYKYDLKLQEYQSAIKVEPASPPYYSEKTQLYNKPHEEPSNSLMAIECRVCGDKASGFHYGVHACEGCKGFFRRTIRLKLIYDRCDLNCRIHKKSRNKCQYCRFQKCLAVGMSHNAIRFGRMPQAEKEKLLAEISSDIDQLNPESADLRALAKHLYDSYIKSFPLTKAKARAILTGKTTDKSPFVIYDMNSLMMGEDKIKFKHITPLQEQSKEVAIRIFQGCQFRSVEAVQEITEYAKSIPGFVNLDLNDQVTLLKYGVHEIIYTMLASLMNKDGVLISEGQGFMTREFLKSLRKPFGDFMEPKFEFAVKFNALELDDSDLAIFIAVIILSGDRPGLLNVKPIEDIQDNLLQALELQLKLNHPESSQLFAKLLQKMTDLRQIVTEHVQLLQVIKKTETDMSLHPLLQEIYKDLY

[2] = molecular target: T2, Type-1 angiotensin II receptor (Homo sapiens, UniProt P30556); test: Antagonist activity at type-1 angiotensin 2 receptor (unknown origin) by calcium mobilizing assay; type: functional
T2 sequence (P30556 whole entry): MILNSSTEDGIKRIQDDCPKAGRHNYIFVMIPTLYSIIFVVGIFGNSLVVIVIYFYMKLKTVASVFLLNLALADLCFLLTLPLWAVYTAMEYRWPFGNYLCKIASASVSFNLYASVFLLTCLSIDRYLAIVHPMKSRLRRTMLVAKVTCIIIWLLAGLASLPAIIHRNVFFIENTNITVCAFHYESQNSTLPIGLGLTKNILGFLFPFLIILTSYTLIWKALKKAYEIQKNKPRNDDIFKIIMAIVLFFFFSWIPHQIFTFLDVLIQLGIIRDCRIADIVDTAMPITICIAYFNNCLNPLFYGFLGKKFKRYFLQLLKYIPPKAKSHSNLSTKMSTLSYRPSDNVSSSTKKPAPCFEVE

[3] = molecular target: T3, Type-1 angiotensin II receptor (Homo sapiens) (UniProt P30556); test: Antagonist activity at type-1 angiotensin 2 receptor (unknown origin) at 20 nM by calcium mobilizing assay relative to fimasartan; type: functional
T3 sequence (whole entry): T2 sequence (P30556 whole entry)

[4] = Half life in rat at 10 mg/kg, po; type: ADME, organism-based; conditions: in vivo
[5] = AUClast in rat at 10 mg/kg, po; type: ADME, organism-based; parameters: dose 10 mg/kg, route oral, time 0 - last; conditions: in vivo
[6] = test system: Rattus norvegicus; test: Antihypertensive activity in angiotensin 2 induced hypertension rat model assessed as time required for 50% reduction in blood pressure at 3 mg/kg, po; type: functional
[7] = Cmax in mouse at 20 mg/kg, po; type: ADME, organism-based; parameters: dose 20 mg/kg, route oral; conditions: in vivo
[8] = test system: Rattus norvegicus; test: Antihypertensive activity in angiotensin 2 induced hypertension rat model at 3 mg/kg, po measured until 8 hrs post dose; type: functional, organism-based
[9] = Tmax in rat at 10 mg/kg, po; type: ADME, organism-based; conditions: in vivo
[10] = Cmax in rat at 10 mg/kg, po; type: ADME, organism-based; parameters: dose 10 mg/kg, route oral; conditions: in vivo
[11] = AUClast in mouse at 20 mg/kg, po; type: ADME, organism-based; parameters: dose 20 mg/kg, route oral, time 0 - last; conditions: in vivo

| Compound | Activity [1] [%] | IC50 [2] [nM] | inhibition [3] [%] | also measured |
| --- | --- | --- | --- | --- |
| CCCCc1nc(C)c(CC(=S)N(CC)CC)c(=O)n1Cc1ccc(-c2ccccc2-c2noc(=O)[nH]2)cc1 | 61 | 2 | – | – |
| CCCCc1nc(C2CC2)c(CC(=S)N2CCCC2)c(=O)n1Cc1ccc(-c2ccccc2-c2noc(=O)[nH]2)cc1 | 79 | – | 63 | – |
| Cc1nc(CC(C)C)n(Cc2ccc(-c3ccccc3-c3noc(=O)[nH]3)cc2)c(=O)c1CC(=S)N(C)C | 70 | – | 0 | – |
| CCCCc1nc(C)c(CC(=S)N(C)C(C)C)c(=O)n1Cc1ccc(-c2ccccc2-c2noc(=O)[nH]2)cc1 | 106 | – | 107 | – |
| CCCCc1nc(C)c(CC(=S)N(C)C)c(=O)n1Cc1ccc(-c2ccccc2-c2nnn[nH]2)cc1 [FIMASARTAN] | 0 | 4.5 | – | half-life [4]: 3.6 h; AUC(0-t) [5]: 1930 ng·h/mL; Time [6]: 22 h; Cmax [7]: 145 ng/mL; Activity [8]: Active; Tmax [9]: 7.8 min; Cmax [10]: 518 ng/mL; AUC(0-t) [11]: 254 ng·h/mL |
| CCCCc1nc(C)c(CC(=S)N2[C@H](C)CC[C@H]2C)c(=O)n1Cc1ccc(-c2ccccc2-c2noc(=O)[nH]2)cc1 | 100 | 1.8 | – | – |
| CCCCc1nc(C)c(CC(=S)N2CC[C@@H]3CCCC[C@H]32)c(=O)n1Cc1ccc(-c2ccccc2-c2noc(=O)[nH]2)cc1 | 121 | 70 | – | – |
| Cc1nc(C2CC2)n(Cc2ccc(-c3ccccc3-c3noc(=O)[nH]3)cc2)c(=O)c1CC(=S)N(C)C | – | – | 9.5 | – |
| CCCCc1nc(C)c(CC(=S)N(C)CC(C)C)c(=O)n1Cc1ccc(-c2ccccc2-c2noc(=O)[nH]2)cc1 | 122 | 2.1 | – | – |
| CCCCc1nc(C)c(CC(=S)N(C)C)c(=O)n1Cc1ccc(-c2ccccc2-c2noc(=O)[nH]2)cc1 | 120 | 1.6 | – | – |
